Test results published in PMC11284800 (Journal of Medicinal Chemistry, 2024).
Read-outs that look alike come from different tables or passages of the source.

Legend:
hCB1R = hCB1R (Homo sapiens, UniProt P21554); test: [3H]CP55,940 displacement assay on CHO membranes, CB1R; format: binding; set-up: host or cells: CHO-K1 (CHOK1hCB1_bgal); details: for Ki: [3H]CP55,940 displacement; for hCB1R % displacement at 10 µM: [3H]CP55,940 displacement at 10 µM compound, ± SEM; for Binding to CB1R (in words): radioligand binding assay
Chain of hCB1R (P21554 whole entry): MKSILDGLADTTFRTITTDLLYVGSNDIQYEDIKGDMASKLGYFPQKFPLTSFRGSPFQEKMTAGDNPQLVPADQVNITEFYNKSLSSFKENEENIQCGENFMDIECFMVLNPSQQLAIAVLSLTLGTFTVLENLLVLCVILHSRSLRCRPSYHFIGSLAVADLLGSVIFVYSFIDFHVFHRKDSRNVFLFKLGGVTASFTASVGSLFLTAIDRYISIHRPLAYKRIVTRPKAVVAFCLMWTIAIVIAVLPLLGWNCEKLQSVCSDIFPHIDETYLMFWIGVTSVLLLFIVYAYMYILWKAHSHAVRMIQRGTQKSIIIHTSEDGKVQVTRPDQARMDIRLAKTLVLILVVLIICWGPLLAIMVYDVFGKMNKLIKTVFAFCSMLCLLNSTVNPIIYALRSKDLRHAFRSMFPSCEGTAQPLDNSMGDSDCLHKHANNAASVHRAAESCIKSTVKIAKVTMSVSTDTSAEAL

human CB2R = molecular target: T1, human CB2R (Homo sapiens, UniProt P34972); test: [3H]CP55,940 displacement assay on CHO membranes, CB2R; format: binding; details: for hCB2R % displacement at 10 µM: [3H]CP55,940 displacement at 10 µM compound, ± SEM; for Ki: [3H]CP55,940 displacement; for Binding to CB2R (in words): radioligand binding assay
T1 construct: host or cells: CHO-K1 (CHOK1hCB2_bgal)
T1 sequence (P34972 whole entry): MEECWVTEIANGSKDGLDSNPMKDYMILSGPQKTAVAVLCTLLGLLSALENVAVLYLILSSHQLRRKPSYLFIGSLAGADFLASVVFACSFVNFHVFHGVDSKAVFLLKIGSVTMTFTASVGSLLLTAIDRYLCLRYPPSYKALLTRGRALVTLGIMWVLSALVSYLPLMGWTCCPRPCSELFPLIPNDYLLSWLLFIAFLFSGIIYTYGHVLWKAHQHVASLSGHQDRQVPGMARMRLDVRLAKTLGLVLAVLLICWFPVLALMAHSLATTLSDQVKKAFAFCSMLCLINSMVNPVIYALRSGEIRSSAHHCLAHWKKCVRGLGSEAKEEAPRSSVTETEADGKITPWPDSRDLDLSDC

[1] = Photophysical characterization in PBS; format: physicochemical; details: PBS pH 7.4
[2] = CHO membranes stably expressing human CB1R, means of three experiments, read-out: hCB1R Ki
[3] = CHO membranes stably expressing human CB2R, means of three experiments, read-out: hCB2R Ki
[4] = hCB2R Ki, CHO membranes stably expressing human CB2R, means of three experiments
[5] = hCB1R Ki, CHO membranes stably expressing human CB1R, means of three experiments
[6] = read-out: hCB1R Ki, CHO membranes stably expressing human CB1R, means of three experiments
[7] = read-out: hCB2R Ki, CHO membranes stably expressing human CB2R, means of three experiments

Row | Structure (SMILES) | Ki (hCB1R; [2]) | hCB2R % displacement at 10 µM (human CB2R) | Ki (human CB2R; [3]) | Ki (human CB2R; [4]) | Ki (hCB1R; [5]) | hCB1R % displacement at 10 µM (hCB1R) | Abs (absorbance maximum) [1] | Em (emission maximum) [1] | QY (quantum yield) [1] | also measured
1 | CCC(CC)(NC(=O)c1cc(-c2cc(C(F)(F)F)ccc2C(F)(F)F)n(C[C@H]2CCCO2)c1C)C(=O)NCCOCCNC(=O)OC(C)(C)C [Compound 22a, tert-Butyl (R)-(2-(2-(2-(5-(2,5-Bis(trifluoromethyl)phenyl)-2-methyl-1-((tetrahydrofuran-2-yl)methyl)-1H-pyrrole-3-carboxamido)-2-ethylbutanamido)ethoxy)ethyl)carbamate] | 1420 nM | 20 ± 3% | > 10000 nM | – | – | – | – | – | – | –
2 | CCC(CC)(NC(=O)c1cc(-c2cc(C(F)(F)F)ccc2C(F)(F)F)n(C[C@H]2CCCO2)c1C)C(=O)NCCOCCOCCOCCNC(=O)OC(C)(C)C [Compound 22c, tert-Butyl (R)-(1-(5-(2,5-Bis(trifluoromethyl)phenyl)-2-methyl-1-((tetrahydrofuran-2-yl)methyl)-1H-pyrrol-3-yl)-3,3-diethyl-1,4-dioxo-8,11,14-trioxa-2,5-diazahexadecan-16-yl)carbamate] | 1220 nM | 23 ± 5% | > 10000 nM | – | – | – | – | – | – | –
3 | CCC(CC)(NC(=O)c1nn(-c2ccc(Cl)cc2Cl)c(-c2ccc(Cl)cc2)c1C)C(=O)NCCOCCNC(=O)OC(C)(C)C [Compound 23a, tert-Butyl (2-(2-(2-(5-(4-Chlorophenyl)-1-(2,4-dichlorophenyl)-4-methyl-1H-pyrazole-3-carboxamido)-2-ethylbutanamido)ethoxy)ethyl)carbamate] | – | – | – | 1590 nM | – | – | – | – | – | Ki (hCB1R; hCB1R pKi ± SEM, CHO membranes): 37.2 nM
4 | CCC(CC)(NC(=O)c1nn(-c2ccc(Cl)cc2Cl)c(-c2ccc(Cl)cc2)c1C)C(=O)NCCOCCOCCOCCNC(=O)OC(C)(C)C [Compound 23c, tert-Butyl (1-(5-(4-Chlorophenyl)-1-(2,4-dichlorophenyl)-4-methyl-1H-pyrazol-3-yl)-3,3-diethyl-1,4-dioxo-8,11,14-trioxa-2,5-diazahexadecan-16-yl)carbamate] | – | – | – | 2120 nM | 397 nM | – | – | – | – | –
5 | CCC(CC)(NC(=O)c1nn(-c2ccc(Cl)cc2Cl)c(-c2ccc(Cl)cc2)c1C)C(=O)NCCOCCOCCOCCOCCNC(=O)OC(C)(C)C [Compound 23d, tert-Butyl (1-(5-(4-Chlorophenyl)-1-(2,4-dichlorophenyl)-4-methyl-1H-pyrazol-3-yl)-3,3-diethyl-1,4-dioxo-8,11,14,17-tetraoxa-2,5-diazanonadecan-19-yl)carbamate] | – | – | – | 2120 nM | 603 nM | – | – | – | – | –
6 | CCC(CC)(NC(=O)c1nn(-c2ccc(Cl)cc2Cl)c2c1CCCc1cc(Cl)ccc1-2)C(=O)NCCOCCOCCNC(=O)OC(C)(C)C [Compound 24, tert-Butyl (1-(8-Chloro-1-(2,4-dichlorophenyl)-1,4,5,6-tetrahydrobenzo[6,7]cyclohepta[1,2-c]pyrazol-3-yl)-3,3-diethyl-1,4-dioxo-8,11-dioxa-2,5-diazatridecan-13-yl)carbamate] | – | – | – | 776 nM | > 10000 nM | 28 ± 3% | – | – | – | –
7 | CCC(CC)(NC(=O)c1cnc(OCC2CC2)c(-c2ccc(F)cc2)c1)C(=O)NCCOCCOCCNC(=O)OC(C)(C)C [Compound 25, tert-Butyl (1-(6-(Cyclopropylmethoxy)-5-(4-fluorophenyl)pyridin-3-yl)-3,3-diethyl-1,4-dioxo-8,11-dioxa-2,5-diazatridecan-13-yl)carbamate] | – | – | – | 818 nM | 3060 nM | – | – | – | – | Ki (hCB1R; hCB1R pKi ± SEM, CHO membranes): 3020 nM
8 | CCC(CC)(NC(=O)c1cnc(OCCOC)c(-c2ccc(Cl)cc2)n1)C(=O)NCCOCCOCCNC(=O)OC(C)(C)C [Compound 26, tert-Butyl (1-(6-(4-Chlorophenyl)-5-(2-methoxyethoxy)pyrazin-2-yl)-3,3-diethyl-1,4-dioxo-8,11-dioxa-2,5-diazatridecan-13-yl)carbamate] | > 10000 nM | – | 701 nM | – | – | 32 ± 6% | – | – | – | –
9 | CCC(CC)(NC(=O)c1nn(Cc2cccc(F)c2)c2ccccc12)C(=O)NCCOCCOCCNC(=O)OC(C)(C)C [Compound 27, tert-Butyl (3,3-Diethyl-1-(1-(3-fluorobenzyl)-1H-indazol-3-yl)-1,4-dioxo-8,11-dioxa-2,5-diazatridecan-13-yl)carbamate] | – | – | – | 108 nM | > 10000 nM | 48 ± 2% | – | – | – | –
10 | CCC(CC)(NC(=O)c1nn(-c2ccc(Cl)cc2Cl)c(-c2ccc(Cl)cc2)c1C)C(=O)NCCOCCOCCNC(=O)c1ccc2c(c1)C(=O)OC21c2ccc(N(C)C)cc2Oc2cc(N(C)C)ccc21 [Compound 31] | – | 32 ± 6% | – | – | – | 37 ± 5% | 520 nm | 585 nm | 17.50% | Ki (hCB1R; [6]): > 10000 nM; Ki (human CB2R; [7]): > 10000 nM
11 | CCC(CC)(NC(=O)c1nn(-c2ccc(Cl)cc2Cl)c2c1CCCc1cc(Cl)ccc1-2)C(=O)NCCOCCOCCNc1ccc([N+](=O)[O-])c2nonc12 [Compound 32, 8-Chloro-1-(2,4-dichlorophenyl)-N-(3-((2-(2-(2-((7-nitrobenzo[c][1,2,5]oxadiazol-4-yl)amino)ethoxy)ethoxy)ethyl)carbamoyl)pentan-3-yl)-1,4,5,6-tetrahydrobenzo[6,7]cyclohepta[1,2-c]pyrazole-3-carboxamide] | – | – | – | 309 nM | > 10000 nM | 35 ± 6% | 485 nm | 570 nm | 1.30% | –
12 | CCC(CC)(NC(=O)c1nn(-c2ccc(Cl)cc2Cl)c2c1CCCc1cc(Cl)ccc1-2)C(=O)NCCOCCOCCNC(=O)c1ccc2c(c1)C(=O)OC21c2ccc(N(C)C)cc2Oc2cc(N(C)C)ccc21 [Compound 33] | – | 21 ± 3% | – | – | – | -5 ± 1% | 520 nm | 585 nm | 11.10% | Binding to CB1R (in words) (hCB1R): did not bind; Ki (hCB1R; [6]): > 10000 nM; Binding to CB2R (in words) (human CB2R): did not bind; Ki (human CB2R; [7]): > 10000 nM
13 | CCC(CC)(NC(=O)c1cnc(OCCOC)c(-c2ccc(Cl)cc2)n1)C(=O)NCCOCCOCCNc1ccc([N+](=O)[O-])c2nonc12 [Compound 34, 6-(4-Chlorophenyl)-5-(2-methoxyethoxy)-N-(3-((2-(2-(2-((7-nitrobenzo[c][1,2,5]oxadiazol-4-yl)amino)ethoxy)ethoxy)ethyl)carbamoyl)pentan-3-yl)pyrazine-2-carboxamide] | > 10000 nM | – | – | – | – | 32 ± 6% | 480 nm | 545 nm | 2.00% | Ki (human CB2R; CHO membranes, read-out: hCB2R pKi ± SEM (converted)): 708 nM
14 | CCC(CC)(NC(=O)c1cnc(OCCOC)c(-c2ccc(Cl)cc2)n1)C(=O)NCCOCCOCCNC(=O)c1ccc2c(c1)C(=O)OC21c2ccc(N(C)C)cc2Oc2cc(N(C)C)ccc21 [Compound 35] | > 10000 nM | 2 ± 0% | > 10000 nM | – | – | -6 ± 5% | 560 nm | 590 nm | 56.20% | Binding to CB1R (in words) (hCB1R): did not bind; Binding to CB2R (in words) (human CB2R): did not bind
15 | CCC(CC)(NC(=O)c1nn(Cc2cccc(F)c2)c2ccccc12)C(=O)NCCOCCOCCNc1ccc([N+](=O)[O-])c2nonc12 [Compound 36, 1-(3-Fluorobenzyl)-N-(3-((2-(2-(2-((7-nitrobenzo[c][1,2,5]oxadiazol-4-yl)amino)ethoxy)ethoxy)ethyl)carbamoyl)pentan-3-yl)-1H-indazole-3-carboxamide] | – | – | – | 79 nM | 1170 nM | – | 475 nm | 565 nm | 1.50% | –
16 | CCC(CC)(NC(=O)c1cnc(OCC2CC2)c(-c2ccc(F)cc2)c1)C(=O)NCCOCCOCCNc1ccc([N+](=O)[O-])c2nonc12 [Compound 40, 6-(Cyclopropylmethoxy)-5-(4-fluorophenyl)-N-(3-((2-(2-(2-((7-nitrobenzo[c][1,2,5]oxadiazol-4-yl)amino)ethoxy)ethoxy)ethyl)carbamoyl)pentan-3-yl)nicotinamide] | – | – | – | 481 nM | > 10000 nM | 34 ± 1% | 465 nm | 550 nm | 1.30% | –
17 | CCC(CC)(NC(=O)c1cnc(OCC2CC2)c(-c2ccc(F)cc2)c1)C(=O)NCCOCCOCCNC(=O)c1ccc2c(c1)C(=O)OC21c2ccc(N(C)C)cc2Oc2cc(N(C)C)ccc21 [Compound 41] | > 10000 nM | 27 ± 3% | > 10000 nM | – | – | 9 ± 1% | 560 nm | 585 nm | 47.40% | Binding to CB1R (in words) (hCB1R): did not bind; Binding to CB2R (in words) (human CB2R): did not bind
18 | CCC(CC)(NC(=O)c1cc(-c2cc(C(F)(F)F)ccc2C(F)(F)F)n(C[C@H]2CCCO2)c1C)C(=O)NCCOCCOCCNc1ccc([N+](=O)[O-])c2nsnc12 [Compound 51, (R)-5-(2,5-Bis(trifluoromethyl)phenyl)-2-methyl-N-(3-((2-(2-(2-((7-nitrobenzo[c][1,2,5]thiadiazol-4-yl)amino)ethoxy)ethoxy)ethyl)carbamoyl)pentan-3-yl)-1-((tetrahydrofuran-2-yl)methyl)-1H-pyrrole-3-carboxamide] | 316 nM | – | 493 nM | – | – | – | 465 nm | 550 nm | 0.30% | –
